# Legend:
# Format in all cases: toxicity, cell-based
# [1] = tested on: HEK-293T; test: Incucyte cell viability with HEK293T; conditions: human, 10 µM, compound concentration 10 uM
# [2] = tested on: Fibroblast; test: Incucyte cell viability with human fibroblast; conditions: 10 µM, compound concentration 10 uM
# [3] = tested on: U2OS; test: Incucyte cell viability with U2OS; conditions: human, 10 µM, compound concentration 10 uM
# Note: unitless GR value; below 1 slowed growth and below 0 cell loss.
structure (smiles),measurement,setting,value
CN(C(=O)c1cnn2cccnc12)c1cc2c(cc1N1CCOCC1)C(=O)N(C[C@@H](F)C(C)(C)O)C2,Growth Rate,"[1]; 0 h, replicate number 1",0.82
same,Growth Rate,"[1]; 0 h, replicate number 2",0.66
same,Growth Rate,"[1]; 6 h, replicate number 2",0.77
same,Growth Rate,"[1]; 12 h, replicate number 2",0.85
same,Growth Rate,"[1]; 18 h, replicate number 2",1
same,Growth Rate,"[1]; 24 h, replicate number 2",0.92
same,Growth Rate,"[2]; 0 h, replicate number 2",0.71
same,Growth Rate,"[2]; 6 h, replicate number 1",0.38
same,Growth Rate,"[2]; 6 h, replicate number 2",0.95
same,Growth Rate,"[2]; 12 h, replicate number 1",0.84
same,Growth Rate,"[2]; 12 h, replicate number 2",0.89
same,Growth Rate,"[2]; 18 h, replicate number 1",0.7
same,Growth Rate,"[2]; 24 h, replicate number 1",0.82
same,Growth Rate,"[3]; 0 h, replicate number 1",0.99
same,Growth Rate,"[3]; 6 h, replicate number 1",0.54
same,Growth Rate,"[3]; 6 h, replicate number 2",0.75
same,Growth Rate,"[3]; 12 h, replicate number 1",0.98
same,Growth Rate,"[3]; 12 h, replicate number 2",-0.78
same,Growth Rate,"[3]; 18 h, replicate number 1",0.75
same,Growth Rate,"[3]; 18 h, replicate number 2",0.92
same,Growth Rate,"[3]; 24 h, replicate number 2",0.85
O=C(NCC1(N2CCN(c3ccccc3)CC2)CCOCC1)c1cccnc1Sc1ccccc1,Growth Rate,"[1]; 0 h, replicate number 1",0.97
same,Growth Rate,"[1]; 0 h, replicate number 2",-0.38
same,Growth Rate,"[2]; 6 h, replicate number 1",0.02
same,Growth Rate,"[2]; 12 h, replicate number 1",-1
same,Growth Rate,"[2]; 18 h, replicate number 1",-0.49
same,Growth Rate,"[3]; 0 h, replicate number 1",0.14
same,Growth Rate,"[3]; 0 h, replicate number 2",-0.32
same,Growth Rate,"[3]; 6 h, replicate number 1",0.97
same,Growth Rate,"[3]; 6 h, replicate number 2",0.73
same,Growth Rate,"[3]; 12 h, replicate number 1",0.95
same,Growth Rate,"[3]; 12 h, replicate number 2",0.86
same,Growth Rate,"[3]; 18 h, replicate number 2",0.92
same,Growth Rate,"[3]; 24 h, replicate number 2",0.93
Cc1cc2c(cc(C(=O)N[C@H](CO)c3ccc(S(=O)(=O)CC(=O)O)cc3)n2C)c(Cl)c1Cl,Growth Rate,"[1]; 0 h, replicate number 1",0.87
same,Growth Rate,"[1]; 6 h, replicate number 1",0.99
same,Growth Rate,"[1]; 24 h, replicate number 1",0.99
same,Growth Rate,"[2]; 6 h, replicate number 1",0.15
same,Growth Rate,"[2]; 12 h, replicate number 2",0.77
same,Growth Rate,"[2]; 18 h, replicate number 2",0.68
same,Growth Rate,"[3]; 6 h, replicate number 1",0.61
same,Growth Rate,"[3]; 6 h, replicate number 2",0.7
same,Growth Rate,"[3]; 12 h, replicate number 2",0.94
same,Growth Rate,"[3]; 18 h, replicate number 1",0.92
same,Growth Rate,"[3]; 18 h, replicate number 2",0.79
same,Growth Rate,"[3]; 24 h, replicate number 1",0.95
same,Growth Rate,"[3]; 24 h, replicate number 2",1
CN1C(=O)Cc2ccc(-c3ccc(C[C@@H](C#N)NC(=O)[C@H]4N[C@@H]5CC[C@H]4C5)c(F)c3)cc21,Growth Rate,"[1]; 0 h, replicate number 1",0.62
same,Growth Rate,"[1]; 12 h, replicate number 1",0.89
same,Growth Rate,"[1]; 12 h, replicate number 2",0.82
same,Growth Rate,"[1]; 18 h, replicate number 1",0.94
same,Growth Rate,"[1]; 18 h, replicate number 2",0.88
same,Growth Rate,"[1]; 24 h, replicate number 1",0.87
same,Growth Rate,"[1]; 24 h, replicate number 2",0.95
same,Growth Rate,"[2]; 0 h, replicate number 1",-1
same,Growth Rate,"[2]; 6 h, replicate number 1",0.56
same,Growth Rate,"[2]; 6 h, replicate number 2",-0.72
same,Growth Rate,"[2]; 12 h, replicate number 1",0.65
same,Growth Rate,"[2]; 12 h, replicate number 2",0.43
same,Growth Rate,"[2]; 18 h, replicate number 1",0.72
same,Growth Rate,"[2]; 18 h, replicate number 2",0.5
same,Growth Rate,"[2]; 24 h, replicate number 1",0.86
same,Growth Rate,"[2]; 24 h, replicate number 2",0.85
same,Growth Rate,"[3]; 6 h, replicate number 1",0.49
Cn1c(C(=O)N[C@@H](CO)c2ccc(C(=O)O)cc2)cc2cc(Cl)ccc21,Growth Rate,"[1]; 0 h, replicate number 2",0.28
same,Growth Rate,"[1]; 6 h, replicate number 1",0.78
same,Growth Rate,"[1]; 24 h, replicate number 1",0.96
same,Growth Rate,"[2]; 0 h, replicate number 2",0.3
same,Growth Rate,"[2]; 6 h, replicate number 2",-0.6
same,Growth Rate,"[2]; 12 h, replicate number 2",0.49
same,Growth Rate,"[2]; 18 h, replicate number 2",0.69
same,Growth Rate,"[2]; 24 h, replicate number 1",1
same,Growth Rate,"[2]; 24 h, replicate number 2",0.68
same,Growth Rate,"[3]; 0 h, replicate number 1",0.76
same,Growth Rate,"[3]; 6 h, replicate number 1",0.58
same,Growth Rate,"[3]; 24 h, replicate number 1",0.92
Cn1ncc(-c2nc(N[C@H]3CC[C@H](N)CC3)ncc2Cl)c1CC1CC1 [BTX-A51],Growth Rate,"[1]; 0 h, replicate number 1",-0.79
same,Growth Rate,"[1]; 24 h, replicate number 1",0.57
same,Growth Rate,"[1]; 24 h, replicate number 2",0.67
same,Growth Rate,"[2]; 0 h, replicate number 1",-0.32
same,Growth Rate,"[2]; 0 h, replicate number 2",-0.85
same,Growth Rate,"[3]; 18 h, replicate number 2",0.89
same,Growth Rate,"[3]; 24 h, replicate number 2",0.74
CN(C)Cc1cccc(NC(=C2C(=O)Nc3cc(C(=O)N(C)C)ccc32)c2ccccc2)c1,Growth Rate,"[1]; 24 h, replicate number 2",0.95
same,Growth Rate,"[2]; 6 h, replicate number 1",0.08
same,Growth Rate,"[2]; 12 h, replicate number 1",0.68
same,Growth Rate,"[2]; 18 h, replicate number 1",0.68
same,Growth Rate,"[2]; 24 h, replicate number 1",0.47
same,Growth Rate,"[3]; 6 h, replicate number 2",0.99
same,Growth Rate,"[3]; 12 h, replicate number 2",0.73
same,Growth Rate,"[3]; 18 h, replicate number 2",0.82
same,Growth Rate,"[3]; 24 h, replicate number 2",0.8

# — ChEMBL document CHEMBL5303304, “EUbOPEN Chemogenomics Library - IncuCyte” (2023)
